Data taken from EPA's ToxRefDB 2.

Columns and labels:
dog [1] = settings: Chronic toxicity; beagle; Oral; Gavage/Intubation; dose end: 364 day; group: systemic; systemic / organ weight / liver / absolute + systemic / pathology microscopic / testes / cellular alteration + systemic / pathology …
dog [2] = settings: Sub-acute repeat dose toxicity, beagle, Oral, Gavage/Intubation, dose end: 14 day, group: systemic
rat [3] = settings: Prenatal developmental toxicity study, Oral, Gavage/Intubation, dose end: 18 GD
rat [4] = settings: Fertility (Segment I), Oral, Gavage/Intubation, dose end: 1 generation, group: parental
dog [5] = settings: Chronic toxicity; beagle; Oral; Gavage/Intubation; dose end: 364 day; group: systemic; systemic / organ weight / liver / absolute + systemic / pathology microscopic / testes / cellular alteration + systemic / pathology …; remark: listed apart in the source
rat [6] = settings: Chronic toxicity, Oral, Feed, dose end: 182 day, group: systemic
rat [7] = settings: Chronic toxicity, wistar, Oral, Feed, dose end: 182 day, group: systemic
rat [8] = settings: Sub-acute repeat dose toxicity; wistar; Oral; Feed; dose end: 14 day; group: systemic; systemic / hematology / leukocyte (wbc) count differential / leukocyte (wbc) + systemic / hematology / lymphocyte / lymphocyte + systemic / …
rat [9] = settings: Fertility (Segment I); Oral; Gavage/Intubation; dose end: 1 generation; group: parental; systemic / in life observation / clinical signs / alopecia + systemic / in life observation / clinical signs / respiration (rales) + …
rabbit = settings: Prenatal developmental toxicity study, Oral, Gavage/Intubation, dose end: 19 GD
rat [10] = settings: Sub-acute repeat dose toxicity, wistar, Oral, Gavage/Intubation, dose end: 14 day, group: systemic
[11] = systemic / clinical chemistry / [other] / [other] + systemic / clinical chemistry / alanine aminotransferase (alt/sgpt) / alanine …
[12] = group: developmental, developmental / developmental malformation / bone / [other] + developmental / developmental malformation / bone / delayed ossification + …
[13] = group: maternal, systemic / in life observation / body weight / body weight + systemic / in life observation / body weight / body weight gain + systemic / in…
[14] = systemic / in life observation / body weight / body weight gain + systemic / in life observation / clinical signs / abnormal feces + …
[15] = systemic / pathology microscopic / testes / dilatation
[16] = systemic / clinical chemistry / albumin-globulin ratio / albumin-globulin ratio + systemic / clinical chemistry / glucose / glucose + …
[17] = systemic / pathology gross / uterus / cyst + systemic / pathology microscopic / uterus / cyst + systemic / organ weight / testes / absolute…
[18] = systemic / pathology gross / full gross necropsy / rhabdomyosarcoma + systemic / clinical chemistry / albumin-globulin ratio / albumin-…
[19] = group: developmental, systemic / in life observation / body weight / fetal weight
[20] = group: maternal, systemic / in life observation / body weight / body weight
[21] = systemic / clinical chemistry / cytochrome p450, nos / cytochrome p450, nos
[22] = systemic / clinical chemistry / cytochrome p450, nos / cytochrome p450, nos + systemic / clinical chemistry / urea nitrogen / urea nitrogen…

Q: For `CCc1cc(C2=C(C(=O)O)N(c3ccccc3C(F)(F)F)S(=O)(=O)c3ccccc32)cc2c1OCO2` [Fandosentan], which LEL (dog [1]) is on record?
A: 10 mg/kg/day

Q: What about the LOAEL (dog [1]) of the same molecule?
A: > 100 mg/kg/day

Q: What about the NEL (dog [1]) of the same molecule?
A: < 10 mg/kg/day

Q: And the NOAEL (dog [1])?
A: ≥ 100 mg/kg/day

Q: And the LOAEL (dog [2]; [11])?
A: > 200 mg/kg/day

Q: And the NOAEL (dog [2]; [11])?
A: ≥ 200 mg/kg/day

Q: And the LEL (dog [2]; systemic / in life observation / clinical signs / defecation (diarrhea) + systemic / clinical chemistry / [other] / [other] + systemic / …)?
A: 30 mg/kg/day

Q: And the LOAEL (rat [3]; [12])?
A: > 250 mg/kg/day

Q: What about the NOAEL (rat [3]; [12]) of the same molecule?
A: ≥ 250 mg/kg/day

Q: What about the LEL (rat [3]; group: developmental, developmental / developmental malformation / bone / [other] + developmental / developmental malformation / face / [other] + developmental / …) of the same molecule?
A: 100 mg/kg/day

Q: And the LEL (rat [3]; [13])?
A: 250 mg/kg/day

Q: And the LOAEL (rat [3]; [13])?
A: > 250 mg/kg/day

Q: And the NOAEL (rat [3]; [13])?
A: ≥ 250 mg/kg/day

Q: And the LOAEL (rat [4]; [14])?
A: > 250 mg/kg/day

Q: What about the NOAEL (rat [4]; [14]) of the same molecule?
A: ≥ 250 mg/kg/day

Q: What about the LEL (rat [4]; [15]) of the same molecule?
A: 25 mg/kg/day

Q: And the NEL (rat [4]; [15])?
A: < 25 mg/kg/day

Q: And the LEL (dog [5])?
A: 10 mg/kg/day

Q: And the LOAEL (dog [5])?
A: > 100 mg/kg/day

Q: What about the NEL (dog [5]) of the same molecule?
A: < 10 mg/kg/day

Q: What about the NOAEL (dog [5]) of the same molecule?
A: ≥ 100 mg/kg/day

Q: And the LOAEL (rat [6]; [16])?
A: > 300 mg/kg/day

Q: And the NOAEL (rat [6]; [16])?
A: ≥ 300 mg/kg/day

Q: What about the LEL (rat [6]; [17]) of the same molecule?
A: 75 mg/kg/day

Q: And the NEL (rat [6]; [17])?
A: < 75 mg/kg/day

Q: What about the LOAEL (rat [7]; [18]) of the same molecule?
A: > 300 mg/kg/day

Q: And the NOAEL (rat [7]; [18])?
A: ≥ 300 mg/kg/day

Q: What about the LEL (rat [7]; [17]) of the same molecule?
A: 75 mg/kg/day

Q: And the NEL (rat [7]; [17])?
A: < 75 mg/kg/day

Q: What about the LEL (rat [8]) of the same molecule?
A: 100 mg/kg/day

Q: What about the LOAEL (rat [8]) of the same molecule?
A: > 750 mg/kg/day

Q: What about the NEL (rat [8]) of the same molecule?
A: < 100 mg/kg/day

Q: What about the NOAEL (rat [8]) of the same molecule?
A: ≥ 750 mg/kg/day

Q: And the LEL (rat [9])?
A: 25 mg/kg/day

Q: And the LOAEL (rat [9])?
A: > 250 mg/kg/day

Q: And the NEL (rat [9])?
A: < 25 mg/kg/day

Q: What about the NOAEL (rat [9]) of the same molecule?
A: ≥ 250 mg/kg/day

Q: What about the LEL (rabbit; [19]) of the same molecule?
A: 50 mg/kg/day

Q: And the LOAEL (rabbit; [19])?
A: > 50 mg/kg/day

Q: And the NOAEL (rabbit; [19])?
A: ≥ 50 mg/kg/day

Q: And the LEL (rabbit; [20])?
A: 50 mg/kg/day

Q: And the LOAEL (rabbit; [20])?
A: > 50 mg/kg/day

Q: And the NEL (rabbit; [20])?
A: 25 mg/kg/day

Q: And the NOAEL (rabbit; [20])?
A: ≥ 50 mg/kg/day

Q: And the LEL (rat [10]; [21])?
A: 100 mg/kg/day

Q: What about the NEL (rat [10]; [21]) of the same molecule?
A: < 100 mg/kg/day

Q: What about the LOAEL (rat [10]; [22]) of the same molecule?
A: > 500 mg/kg/day

Q: And the NOAEL (rat [10]; [22])?
A: ≥ 500 mg/kg/day
